# What was measured:
# [1] = target: T1, recombinant human ABHD6 (33-337) (Homo sapiens, UniProt Q9BV23); experiment: Evaluation of ABHD6 enzyme inhibitory activity (arachidonic acid production from 1-arachidonoyl glycerol, RapidFire-MS); assay type: biochemical; details: recombinant human GST-tagged ABHD6 (33-337), substrate 1-arachidonoyl glycerol 10 μmol/L, 1 hour, room temperature
# T1 construct: recombinant human ABHD6 (33-337); GST; made in house; host or cells: E. coli
# T1 sequence (Q9BV23 33-337): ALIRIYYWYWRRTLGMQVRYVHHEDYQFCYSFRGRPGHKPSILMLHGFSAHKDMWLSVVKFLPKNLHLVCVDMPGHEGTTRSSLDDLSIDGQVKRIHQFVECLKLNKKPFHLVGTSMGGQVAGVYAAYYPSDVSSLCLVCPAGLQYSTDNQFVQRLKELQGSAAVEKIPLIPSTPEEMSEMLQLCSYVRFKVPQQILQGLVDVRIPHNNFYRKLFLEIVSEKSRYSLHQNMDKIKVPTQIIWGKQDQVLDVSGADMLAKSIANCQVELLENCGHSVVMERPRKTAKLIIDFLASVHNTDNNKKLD
# Experimental: The recombinant human ABHD6 (33-337) was a GST-tagged ABHD6, and one which was expressed in E. coli, then purified with a Glutathione-Sepharose 4B resin, and then concentrated was used. The enzyme reaction was carried out at room temperature using a 384-well microplate made of polypropylene, and wells to which no enzyme was added were designated as a blank group.
# One hour after the start of the enzyme reaction, methanol containing, as an internal standard substance, arachidonic acid-d8 (Cayman Chemical) and 1% formic acid was added to stop enzymatic reaction. The upper part of the enzyme reaction plate was sealed with aluminum, and centrifugation was performed at 560 g for 5 minutes at room temperature. Then, arachidonic acid as an enzyme reaction product and arachidonic acid-d8 as the internal standard substance were quantified with RapidFire (registered trademark)-Mass Spectrometry system.
# [2] = target: T2, human ABHD6 (Homo sapiens, UniProt Q9BV23); experiment: Measurement of binding affinity for human ABHD6 (BRET, HEK293 cells expressing NanoLuc-human ABHD6 fusion protein); details: fluorescent probe 100 nmol/L
# T2 construct: expressed in transfected cells; host or cells: HEK293
# T2 sequence (Q9BV23 1-337): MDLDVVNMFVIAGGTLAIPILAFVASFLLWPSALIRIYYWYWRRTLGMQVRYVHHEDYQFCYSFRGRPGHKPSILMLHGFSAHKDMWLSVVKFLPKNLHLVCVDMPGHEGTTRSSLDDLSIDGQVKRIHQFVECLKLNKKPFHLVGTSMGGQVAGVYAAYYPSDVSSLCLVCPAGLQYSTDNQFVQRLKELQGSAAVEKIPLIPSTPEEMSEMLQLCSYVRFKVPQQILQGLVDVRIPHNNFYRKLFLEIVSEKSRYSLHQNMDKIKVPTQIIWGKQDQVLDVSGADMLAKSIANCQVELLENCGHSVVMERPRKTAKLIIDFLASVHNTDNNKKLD
# Experimental: The binding affinity of the test compound for human ABHD6 was measured using bioluminescence resonance energy transfer (hereinafter, abbreviated as BRET) as an index. The bioluminescence resonance energy transfer is induced by the proximity of a probe molecule and a NanoLuc-human ABHD6 fusion protein, which is caused by allowing a fluorescent probe molecule and a test compound to act in a competitive manner using HEK293 cells forcibly expressing the NanoLuc-human ABHD6 fusion protein.
# The test compound and the compound described in Example 2 as a control substance were each dissolved in dimethyl sulfoxide (DMSO) to prepare a 10 mmol/L solution. The prepared 10 mmol/L solution was thawed at the time of use, serially diluted with DMSO, and subjected to an experiment.
# HEK293 cells expressing a NanoLuc-human ABHD6 fusion protein were statically cultured at 37° C. in the presence of 5% CO2 using inactivated (56° C., 30 min) 9.8 vol % non-dialyzed-FBS (containing 0.5 vol % GENETICIN and 1% penicillin-streptomycin). The subculture was performed by the following method.
# The culture medium was removed, and the cells were washed once with phosphate buffered saline without Ca^2+ and Mg^2+. An appropriate amount of trypsin-EDTA was added, and the cells were incubated at room temperature. After the cells were detached, a culture medium in a volume 10-fold the volume of trypsin-EDTA (0.05%) was added to stop an enzyme reaction. The cells were collected in a centrifuge tube, and centrifuged at room temperature for 3 minutes at 120 g, and the supernatant was removed. The cells were suspended in an appropriate amount of culture medium and seeded in a culture flask.
# HEK293 cells expressing a NanoLuc-human ABHD6 fusion protein were prepared, and then cryopreserved so as to be 5.0×10^6 cells/mL/vial in CELLBANKER2, and the cells were subjected to an experiment. HBSS (+) containing 20 mmol/L HEPES (pH 7.3) and 0.1% BSA was prepared and used as an assay buffer. The cells were thawed and suspended in the assay buffer to prepare a cell suspension of 2×10^5 cells/mL. […] The plate was allowed to stand at 37° C. for 30 minutes in the presence of 5% CO2. Then, a probe molecule (10 mmol/L in DMSO) having a fluorophore was diluted with the assay buffer so as to have a final concentration of 100 nmol/L, and added to the assay plate in an amount of 15 μL each. Further, this was allowed to stand at 37° C. for 30 minutes in the presence of 5% CO2. Then, a Nano-Glo (registered trademark) Vivazine (trademark) substrate (Promega Corporation) was diluted with the assay buffer according to the method described in the protocol, and added to the assay plate in an amount of 10 μL each, and this was allowed to stand at room temperature for 1 hour. Thereafter, the luminescence and fluorescence intensity were measured using a GloMax (registered trademark) discover system. The ratio between the emission intensity through the 450 nm bandpass filter and the fluorescence intensity through the 600 nm longpass filter was defined as the measured value of each sample. […] The measured value of the group not containing the compound was defined as 0% inhibition. The IC50 value of the test compound was determined from the measured value at each test compound concentration.
SMILES,IC50 [1] [nM],IC50 [2] [nM]
"Cc1ccc(C(=O)N2C[C@@H]3CC[C@@H](Oc4ccc(Br)nn4)[C@@H]3C2)s1 [Example 1-1, [(3aS,4R,6aR)-4-[(6-Bromo-3-pyridazinyl)oxy]hexahydrocyclopenta[c]pyrrol-2(1H)-yl](5-methyl-2-thienyl)methanone]",1,11
"O=C(c1ccc(C(F)F)s1)N1C[C@@H]2CC[C@@H](Oc3ccc(Br)nn3)[C@@H]2C1 [Example 1-7, [(3aS,4R,6aR)-4-[(6-Bromo-3-pyridazinyl)oxy]hexahydrocyclopenta[c]pyrrol-2(1H)-yl][5-(difluoromethyl)-2-thienyl]methanone]",< 1,20
"O=C(c1cc2c(s1)CCOC2)N1CC2CCC(Oc3nnc(Cl)c4ccsc34)C2C1 (stereo not shown) [Example 2-3, {4-[(4-Chlorothieno[2,3-d]pyridazin-7-yl)oxy]hexahydrocyclopenta[c]pyrrol-2(1H)-yl}(6,7-dihydro-4H-thieno[3,2-c]pyran-2-yl)methanone]",1,9
"O=C(c1cc2c(s1)CCOC2)N1C[C@@H]2CC3(CC3)[C@@H](Oc3ccc(Br)nn3)[C@@H]2C1 [Example 4, [(3aS,4S,6aR)-4-[(6-Bromo-3-pyridazinyl)oxy]tetrahydro-1H-spiro[cyclopenta[c]pyrrole-5,1′-cyclopropan]-2(3H)-yl](6,7-dihydro-4H-thieno[3,2-c]pyran-2-yl)methanone]",< 1,1
"O=C(c1cc2c(s1)CCOC2)N1C[C@@H]2CC[C@@H](Oc3ccc(Br)nn3)[C@]2(O)C1 [Example 7, [(3aR,4R,6aS)-4-[(6-Bromo-3-pyridazinyl)oxy]-3a-hydroxyhexahydrocyclopenta[c]pyrrol-2(1H)-yl](6,7-dihydro-4H-thieno[3,2-c]pyran-2-yl)methanone]",2,3

# The next lines start with the values.
IC50 [1] [nM],IC50 [2] [nM],SMILES
< 1,4,"O=C(c1cc2nn(C3CC3)cc2s1)N1C[C@@H]2CC[C@@H](Oc3ccc(Br)nn3)[C@@H]2C1 [Example 1-4, [(3aS,4R,6aR)-4-[(6-Bromo-3-pyridazinyl)oxy]hexahydrocyclopenta[c]pyrrol-2(1H)-yl](2-cyclopropyl-2H-thieno[3,2-c]pyrazol-5-yl)methanone]"
< 1,4,"Cn1ncc2cc(C(=O)N3C[C@@H]4CC[C@@H](Oc5ccc(Br)nn5)[C@@H]4C3)sc21 [Example 1-10, [(3aS,4R,6aR)-4-[(6-Bromo-3-pyridazinyl)oxy]hexahydrocyclopenta[c]pyrrol-2(1H)-yl](1-methyl-1H-thieno[2,3-c]pyrazol-5-yl)methanone]"
< 1,5,COC(=O)N1CCc2sc(C(=O)N3C[C@@H]4CC[C@@H](Oc5ccc(Br)nn5)[C@@H]4C3)cc2C1 [Example 1-13]
< 1,10,"O=C(c1ccc(OCCF)s1)N1C[C@@H]2CC[C@@H](Oc3ccc(Br)nn3)[C@@H]2C1 [Example 1-19, [(3aS,4R,6aR)-4-[(6-Bromo-3-pyridazinyl)oxy]hexahydrocyclopenta[c]pyrrol-2(1H)-yl][5-(2-fluoroethoxy)-2-thienyl]methanone]"
2,9,"COc1cc(Cl)nnc1O[C@@H]1CC[C@H]2CN(C(=O)c3cc4c(s3)CCOC4)C[C@H]21 [Example 2-5, [(3aS,4R,6aR)-4-[(6-Chloro-4-methoxy-3-pyridazinyl)oxy]hexahydrocyclopenta[c]pyrrol-2(1H)-yl](6,7-dihydro-4H-thieno[3,2-c]pyran-2-yl)methanone]"
< 1,2,"O=C(c1cc2c(s1)CCOC2)N1C[C@@H]2C[C@H](F)[C@@H](Oc3ccc(Br)nn3)[C@@H]2C1 [Example 9, [(3aS,4S,5S,6aR)-4-[(6-Bromo-3-pyridazinyl)oxy]-5-fluorohexahydrocyclopenta[c]pyrrol-2(1H)-yl](6,7-dihydro-4H-thieno[3,2-c]pyran-2-yl)methanone]"

# Reference: patent US20260083735A1, “ABHD6 ANTAGONIST” (ONO PHARMACEUTICAL CO., LTD., priority 2022, published 2026)
